# Data from PubChem BioAssay AID977613 (Broad Institute, 2014).
# Active and inactive are the calls of the source. The rule behind the calls is not given here.
# System: Broad 7084-01 inhibitor HTS, set 2
# Test: single-concentration hits, screen 7084 set 2 (AID 977613);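 note: host cells are infected with parasite promastigotes that become internalized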
row,SMILES,active concentration
1,C/C=C/c1ccc([C@@H]2[C@H](CO)N(S(=O)(=O)CC)C23CN(C(C)=O)C3)cc1,> 10 µM (inactive)
2,COc1ccc(NC(=O)N2CCCCN3[C@@H](CO)[C@H](c4ccc(-c5ccccc5F)cc4)[C@@H]3C2)cc1,> 10 µM (inactive)
3,CC(=O)N1CCCCN2[C@@H](CO)[C@@H](c3ccc(-c4ccccc4)cc3)[C@@H]2C1,> 10 µM (inactive)
4,O=S(=O)(c1ccccc1)N1CCCCN2[C@H](CO)[C@@H](c3ccc(C#CC4CCCC4)cc3)[C@H]2C1,> 10 µM (inactive)
5,CCS(=O)(=O)N1CC2(CN(CC3CCOCC3)[C@@H](CO)c3c2c2ccc(OC)cc2n3C)C1,> 10 µM (inactive)
6,COCC(=O)N1CC[C@H]2[C@@H]1c1cc(-c3ccc(F)cc3)ccc1N(C)[C@H]2CO,> 10 µM (inactive)
7,O=C(C[C@H]1CC[C@@H]2[C@H](COC[C@@H](O)CN2S(=O)(=O)c2ccccc2)O1)Nc1ccccc1,> 10 µM (inactive)
8,N#C[C@H]1[C@@H](c2ccccc2-c2cccc(F)c2)[C@@H](CO)N1C(=O)CN1CCOCC1,> 10 µM (inactive)
9,CN1[C@@H]2CN(C(=O)C3CCCCC3)c3ccccc3[C@@H]2[C@@H]1CO,> 10 µM (inactive)
10,C/C=C/c1ccccc1[C@@H]1[C@H](C#N)N(C(C)=O)[C@H]1CO,> 10 µM (inactive)
11,COc1cccc(S(=O)(=O)N2CCCCN3[C@@H](CO)[C@@H](c4ccc(C#CCC(C)C)cc4)[C@@H]3C2)c1,> 10 µM (inactive)
12,O=C(Nc1ccccc1)N1CC(=O)N2[C@H](C1)[C@H](c1ccc(C#CC3CCCCC3)cc1)[C@@H]2CO,> 10 µM (inactive)
13,O=C(C[C@H]1CC[C@@H]2[C@H](COC[C@@H](O)CN2CC2CC2)O1)NCc1ccc(Cl)cc1,> 10 µM (inactive)
14,O=C(c1cccc(F)c1)N1CCCCN2[C@H](CO)[C@H](c3ccc(C#CC4(O)CCCC4)cc3)[C@H]2C1,> 10 µM (inactive)
15,O=C(C1CCCCC1)N1CC2(C1)[C@@H](c1ccccc1)[C@H](CO)N2C(=O)c1cccnc1,> 10 µM (inactive)
16,O=C1CN(S(=O)(=O)Cc2ccccc2)C[C@H]2[C@@H](c3ccc(C#Cc4ccccc4)cc3)[C@H](CO)N12,> 10 µM (inactive)
17,COc1ccccc1CN1[C@@H]2c3ccc(C4=CCCC4)c(=O)n3C[C@H]1[C@H](CO)[C@H]2C(=O)N(C)C,> 10 µM (inactive)
18,O=C(C1CCOCC1)N1CC(=O)N2[C@H](C1)[C@H](c1ccc(-c3cccnc3)cc1)[C@@H]2CO,> 10 µM (inactive)
19,O=C(C[C@H]1CC[C@H]2[C@@H](COC[C@H](O)CN2C(=O)C2CC2)O1)NCc1ccncc1,> 10 µM (inactive)
20,O=C(c1cccnc1)N1CC2(C1)[C@H](c1ccccc1)[C@@H](CO)N2Cc1ccc(Cl)cc1,> 10 µM (inactive)
21,O=C(NCC1CCCCC1)[C@@H]1[C@@H](CO)[C@@H]2Cn3c(ccc(-c4cncnc4)c3=O)[C@H]1N2,> 10 µM (inactive)
22,O=S(=O)(c1ccccc1)N1CC[C@@H]2[C@H]1c1cc(Br)ccc1N[C@@H]2CO,> 10 µM (inactive)
23,CN(C)C(=O)[C@@H]1[C@@H](CO)[C@@H]2Cn3c(cccc3=O)[C@@H]2N1C(=O)C1CCC1,> 10 µM (inactive)
24,CC(C)NC(=O)N1CC[C@@H]2[C@H]1c1cc(Br)ccc1N(C)[C@H]2CO,> 10 µM (inactive)
25,C/C=C/c1ccc([C@@H]2[C@@H](CO)N3C(=O)CN(C(=O)c4ccncc4)C[C@H]23)cc1,> 10 µM (inactive)
26,CCC(=O)N1[C@@H]2Cn3c(ccc(-c4ccc(F)cc4)c3=O)[C@H]1[C@@H](C(=O)OC)[C@@H]2CO,> 10 µM (inactive)
27,CCCC#Cc1ccc([C@H]2[C@H](CO)N3C(=O)CN(C(=O)c4cccnc4)C[C@@H]23)cc1,> 10 µM (inactive)
28,O=C([C@H]1[C@H](CO)[C@H]2Cn3c(cccc3=O)[C@@H]1N2Cc1cocn1)N1CCCCC1,> 10 µM (inactive)
